The values that follow are results of earlier work, collected in patent US20040157932A1, “Supplements and foods comprising oleylethanolamide” (Natural ASA,, priority 2002, published 2004).

In series [1] the test system is FAAH.
The conditions of series [2]: rats.
The subject of series [3] is cannabinoid receptors.
For series [4] the following is noted: diet with 0.5 percent CLA.
Series [5] concerns rat mammary tumorigenesis. Particulars: administration of CLA.
For series [6] the following is noted: CLA in animal feed, birds and mammals.
For series [7], the system named is human melanoma, colorectal and breast cancer cells. Particulars: in vitro.
The subject of series [8] is CD-4 and CD-8 lymphocyte subpopulations; white blood cells.

As for `CCCCCCC(C)OC(=O)CC(=O)CBr` (stereo not shown) [2-octyl y-gamma.-bromoacetoacetate], the FAAH inhibition entry in series [1] was “potent”.

As for `CCCCCCCC/C=C\CCCCCCCC(=O)NCCO` [OEA, oleylethanolamide], in series [2] (OEA in diet), the desire for food entry was “reduced desire for food” and the weight gain entry was “decreased weight gain”. For the same molecule, the “effect on the nervous system” value in series [2] (in contrast to currently available weight loss drugs) is “not effecting the nervous system”. Besides, the “activation of cannabinoid receptors” value in series [3] is given as “does not activate”.

With conjugated linoleic acid [CLA], the body weight entry in series [4] was “no increase”. Also, in series [4] (pigs, mice, humans), the fat content result is reported as “significant drop” and the protein mass entry is “concomitant increase”. Besides, the rat mammary tumorigenesis result in series [5] was “inhibits”. Moreover, in series [6], the “efficiency of feed conversion” value was “increased the efficiency of feed conversion”. Moreover, the “cytotoxicity against human melanoma, colorectal and breast cancer cells” value in series [7] was “strong cytotoxic agent”. For the same molecule, in series [8] (CLA in concentrations of about 0.1 to 1.0 percent), the “preserving white blood cells” value is on record as “effective adjuvant”. Further, the “CD-4 and CD-8 lymphocyte subpopulations” value in series [8] (oral or parenteral administration, free acid or salt form) is on record as “elevation”.
